Source: patent publication US11230535B2, “CFTR regulators and methods of use thereof” (THE REGENTS OF THE UNIVERSITY OF CALIFORNIA, priority 2015, dated 2022)
“Also recorded” adds a separate entry of the source. Where two headings read alike, the source gives them in different places.

Legend:
[1] = molecular target: human wild-type CFTR (Homo sapiens, UniProt P13569); assay: Cell-based plate reader (YFP iodide influx) assay of CFTR function; set-up: expressed in transfected cells; host or cells: Fischer rat thyroid (FRT) cells stably co-expressing YFP-H148Q; conditions: for % Activation: FRT cells with YFP and wildtype CFTR, 125 nM forskolin
Sequence of human wild-type CFTR (P13569 whole entry): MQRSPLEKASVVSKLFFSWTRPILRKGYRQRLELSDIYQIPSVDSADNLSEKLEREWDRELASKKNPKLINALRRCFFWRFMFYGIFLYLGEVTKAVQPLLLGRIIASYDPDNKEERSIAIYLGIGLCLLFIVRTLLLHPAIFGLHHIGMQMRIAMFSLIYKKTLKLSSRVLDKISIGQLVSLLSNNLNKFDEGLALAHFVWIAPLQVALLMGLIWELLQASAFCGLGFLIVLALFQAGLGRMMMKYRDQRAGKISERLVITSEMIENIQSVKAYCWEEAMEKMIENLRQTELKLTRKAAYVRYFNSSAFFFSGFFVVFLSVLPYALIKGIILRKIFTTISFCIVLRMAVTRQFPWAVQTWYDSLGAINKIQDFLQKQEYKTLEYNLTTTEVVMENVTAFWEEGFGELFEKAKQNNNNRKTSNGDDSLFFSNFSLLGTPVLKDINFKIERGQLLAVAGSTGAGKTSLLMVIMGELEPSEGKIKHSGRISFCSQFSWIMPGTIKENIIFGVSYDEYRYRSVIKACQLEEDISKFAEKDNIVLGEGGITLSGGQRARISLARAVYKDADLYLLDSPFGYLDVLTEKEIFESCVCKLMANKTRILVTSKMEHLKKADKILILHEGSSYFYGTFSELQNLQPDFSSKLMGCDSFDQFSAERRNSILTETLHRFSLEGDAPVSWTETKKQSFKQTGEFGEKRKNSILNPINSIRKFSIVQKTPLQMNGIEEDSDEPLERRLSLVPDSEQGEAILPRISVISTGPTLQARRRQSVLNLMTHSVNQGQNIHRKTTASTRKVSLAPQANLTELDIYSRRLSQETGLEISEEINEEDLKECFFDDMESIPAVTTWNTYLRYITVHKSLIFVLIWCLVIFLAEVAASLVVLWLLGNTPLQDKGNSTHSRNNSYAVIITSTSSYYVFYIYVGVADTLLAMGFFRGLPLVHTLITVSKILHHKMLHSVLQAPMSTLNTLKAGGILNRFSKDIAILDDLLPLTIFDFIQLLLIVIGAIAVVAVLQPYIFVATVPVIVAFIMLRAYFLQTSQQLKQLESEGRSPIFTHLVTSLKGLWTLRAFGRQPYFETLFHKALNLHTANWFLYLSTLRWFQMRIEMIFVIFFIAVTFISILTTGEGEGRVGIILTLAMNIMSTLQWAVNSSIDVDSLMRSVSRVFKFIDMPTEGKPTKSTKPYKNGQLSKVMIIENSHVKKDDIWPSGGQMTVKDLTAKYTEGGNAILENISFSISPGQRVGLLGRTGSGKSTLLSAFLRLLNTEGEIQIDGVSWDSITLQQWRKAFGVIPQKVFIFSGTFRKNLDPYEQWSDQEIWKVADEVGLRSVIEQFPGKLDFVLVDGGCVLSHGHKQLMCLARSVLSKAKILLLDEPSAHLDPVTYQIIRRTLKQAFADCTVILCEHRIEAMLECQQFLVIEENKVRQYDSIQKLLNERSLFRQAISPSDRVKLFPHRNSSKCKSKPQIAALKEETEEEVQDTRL
Procedure: The initiate rate of I^− influx was computed by determined using exponential regression. All compound plates contained negative controls (DMSO vehicle) and positive controls (20 μM forskolin).
High-throughput screening. […] The initiate rate of I^− influx was computed by determined using exponential regression. All compound plates contained negative controls (DMSO vehicle) and positive controls ([…] forskolin).
Platereader assays of chloride channel function. CFTR activity was assayed as described. […] I^− influx was measured in a plate reader with initial baseline read for 2 s and then for 12 s after rapid addition of an I^−-containing solution. TMEM16A activity was assayed similarly as described using FRT cells co-expressing YFP and TMEM16A. Activity of non-TMEM16A CaCC was assayed as described in HT-29 cells expressing YFP. In each assay initial rates of I^− influx were computed as a linear measure of channel function.

[2] = test system: rat liver microsomes; assay: In vitro metabolic stability in rat liver microsomes; type: in vitro ADME; conditions: NADPH
Procedure: In vitro metabolic stability. Compounds (each 5 μM) were incubated for specified times at 37° C. with rat liver microsomes (1 mg/ml; Sigma-Aldrich) in potassium phosphate buffer containing 1 mM NADPH, as described^14.

[3] = test system: mice; assay: Tear secretion / tear volume in mice (phenol red thread); type: in vivo, mouse
Procedure: To measure unstimulated tear production, phenol red threads (Zone-Quick, Oasis Medical, Glendora, Calif., USA) were placed for 10 s in the lateral canthi of isofluorane-anesthetized mice using jewelers' forceps. Tear volume was measured as the length of thread wetting, as visualized under a dissecting microscope. Serial measurements were used to evaluate compound pharmacodynamics after application of 2-μL drops of compound formulations (50-100 μM compound in PBS containing 0.5% polysorbate and 0.5% DMSO) comparing to vehicle.
Tear secretion. To measure unstimulated tear production, phenol red threads (Zone-Quick, Oasis Medical, Glendora, Calif., USA) were placed for 10 s in the lateral canthi of isofluorane-anesthetized mice using jewelers' forceps. Tear volume was measured as the length of thread wetting, as visualized under a dissecting microscope. Serial measurements were used to evaluate compound pharmacodynamics after application of 2-[…]L drops of compound formulations (50-100 μM compound in PBS containing 0.5% polysorbate and 0.5% DMSO) comparing to vehicle.
Tear volume. Tear volume was measured using phenol red threads (Zone-Quick, Oasis Medical, Glendora, Calif.) as described. Threads were placed for 10 s in the lateral canthi of isofluorane-anesthetized mice using jewelers' forceps. Tear volume was determined from the length of thread wetting as visualized under a dissecting microscope. Serial measurements were done to evaluate compound pharmacodynamics after topical application of a single, 2.5-μL drop of ophthalmic formulation containing 0-100 μM of 1 or 12 in Ringer's solution with 0.3% carboxymethylcellulose (high viscosity, VWR, Radnor, Pa.), 0.015% benzalkonium chloride preservative, and 1% DMSO. Both eyes in each mouse received the same treatment to control for potential contralateral effects of a given treatment.

[4] = test system: loperamide-treated mice; assay: Loperamide-induced mouse model of constipation (3-h stool weight, pellet number, water content); conditions: wildtype loperamide-treated mice
[5] = commercial analogs, read-out: EC50 (full-dose response assay, compounds >80% activation)

Row | Molecule | % Activation ([1]; commercial analogs) | other results
1 | CCN(CC)c1nc(Nc2ccc3ncoc3c2)nc(OC(C(F)(F)F)C(F)(F)F)n1 [6j, N′-(1,3-Benzoxazol-6-yl)-N,N-diethyl-6-[(1,1,1,3,3,3-hexafluoropropan-2-yl)oxy]-1,3,5-triazine-2,4-diamine] | – | EC50 ([1]; bicyclic aniline analogs, read-out: EC50): 150 nM; original compound remaining at 60 min ([2]; 5 μM, rat hepatic microsomes): ~60%; metabolic stability in hepatic microsomes, in words [2]: metabolized slowly; also recorded: substantially greater in vitro metabolic stability than 1 or 12
2 | CC(C)Cn1c(=O)n(C)c(=O)c2[nH]cnc21 [IBMX, 3-isobutyl-1-methylxanthine, reference compound] | – | basal tear secretion at 30 min ([3]; single topical dose, 30 min): substantially increased; effect on tear secretion after 2 hours ([3]; single topical dose, after 2 hours): undetectable
3 | CCC(C)Nc1nc(Nc2ccc([N+](=O)[O-])cc2)nc(OC(C(F)(F)F)C(F)(F)F)n1 (centres unmarked) [K056] | 38% | –
4 | FC(F)(F)COc1nc(N2CCCCC2)nc(N(c2ccccc2)c2ccccc2)n1 [K057] | 28% | –
5 | C=CCNc1nc(OC(C(F)(F)F)C(F)(F)F)nc(N(c2ccccc2)c2ccccc2)n1 [K058] | 37% | –
6 | C=CCNc1nc(Nc2cccc([N+](=O)[O-])c2)nc(OC(C(F)(F)F)C(F)(F)F)n1 [K059] | 90% | EC50 [1, 5]: 750 nM
7 | COc1ccc(Nc2nc(NC3CCCCC3)nc(OC(C(F)(F)F)C(F)(F)F)n2)cc1 [K060] | 38% | –
8 | Cc1ccc(Nc2nc(OC(C(F)(F)F)C(F)(F)F)nc(N3CCCCC3)n2)cc1 [K061] | 31% | –
9 | Fc1ccc(Nc2nc(OC(C(F)(F)F)C(F)(F)F)nc(N3CCCCC3)n2)cc1 [K062] | 49% | –
10 | FC(F)(F)C(Oc1nc(N2CCCCCC2)nc(N(c2ccccc2)c2ccccc2)n1)C(F)(F)F [K063] | 41% | –
11 | CC(=O)N1CCN(c2nc(Nc3ccccc3C(=O)c3ccccc3)nc(OC(C(F)(F)F)C(F)(F)F)n2)CC1 [K064] | 40% | –
12 | FC(F)(F)C(Oc1nc(Nc2ccc(Cl)cc2)nc(N2CCOCC2)n1)C(F)(F)F [K065] | 38% | –
13 | CCOc1nc(Nc2ccc(-c3nc4ccccc4o3)cc2)nc(N2CCOCC2)n1 [K066] | 87% | EC50 [1, 5]: 2900 nM
14 | C=CCNc1nc(Nc2ccc(-c3nc4ccccc4o3)cc2)nc(OCC)n1 [K067] | 49% | –
15 | CCOc1nc(NCCO)nc(Nc2ccc(-c3nc4ccccc4o3)cc2)n1 [K068] | 84% | EC50 [1, 5]: 4100 nM
16 | FC(F)(F)COc1nc(Nc2ccc(OC(F)(F)Cl)cc2)nc(N2CCOCC2)n1 [K069] | 37% | –
17 | FC(F)(F)COc1nc(Nc2ccc(OC(F)(F)Cl)cc2)nc(N2CCCCC2)n1 [K070] | 28% | –
18 | CN1CCN(c2nc(Nc3ccc(OC(F)(F)Cl)cc3)nc(OCC(F)(F)F)n2)CC1 [K071] | 25% | –
19 | FC(F)(F)COc1nc(Nc2ccc(OC(F)(F)F)cc2)nc(N2CCOCC2)n1 [K072] | 31% | –
20 | FC(F)(F)COc1nc(Nc2ccc(OC(F)(F)F)cc2)nc(N2CCCCC2)n1 [K073] | 19% | –

Row | Molecule | % Activation ([1]; commercial analogs) | other results
21 | CN1CCN(c2nc(Nc3ccc(OC(F)(F)F)cc3)nc(OCC(F)(F)F)n2)CC1 [K074] | 25% | –
22 | CN(C)c1nc(Nc2ccc(OC(F)(F)Cl)cc2)nc(OCC(F)(F)F)n1 [K075] | 32% | –
23 | C=CCNc1nc(Nc2ccc(OC(F)(F)Cl)cc2)nc(OCC(F)(F)F)n1 [K076] | 46% | –
24 | C=CCNc1nc(Nc2ccc(OC(F)(F)Cl)cc2)nc(OCC(F)(F)F)n1 [K077] | 29% | –
25 | OCCNc1nc(Nc2ccc(OC(F)(F)Cl)cc2)nc(OCC(F)(F)F)n1 [K078] | 28% | –
26 | FC(F)(F)COc1nc(Nc2ccc(OC(F)(F)F)cc2)nc(NC2CC2)n1 [K079] | 40% | –
27 | FC(F)(F)COc1nc(NCc2ccccc2)nc(Nc2ccc(OC(F)(F)Cl)cc2)n1 [K080] | 26% | –
28 | FC(F)(F)COc1nc(Nc2ccc(OC(F)(F)Cl)cc2)nc(N2CCN(c3cccc(Cl)c3)CC2)n1 [K081] | 24% | –
29 | FC(F)(F)COc1nc(NCc2ccccc2)nc(Nc2ccc(OC(F)(F)F)cc2)n1 [K082] | 28% | –
30 | FC(F)(F)COc1nc(Nc2ccc(OC(F)(F)Cl)cc2)nc(NC2CC2)n1 [K083] | 54% | –
31 | CCC(C)Nc1nc(Nc2ccc(OC(F)(F)Cl)cc2)nc(OCC(F)(F)F)n1 (centres unmarked) [K084] | 22% | –
32 | CCCCNc1nc(Nc2ccc(OC(F)(F)Cl)cc2)nc(OCC(F)(F)F)n1 [K085] | 25% | –
33 | CCC(C)Nc1nc(Nc2ccc(OC(F)(F)F)cc2)nc(OCC(F)(F)F)n1 (centres unmarked) [K086] | 20% | –
34 | CN(C)c1nc(Nc2ccc(Cl)cc2)nc(OCCNC(=O)c2ccc(Cl)cc2)n1 [K087] | 47% | –
35 | CCCCCCNc1nc(Nc2ccc([N+](=O)[O-])cc2)nc(OCC)n1 [K088] | 33% | –
36 | CCOc1nc(NCCN2CCOCC2)nc(Nc2ccc([N+](=O)[O-])cc2)n1 [K090] | 52% | –
37 | Cc1cc(I)ccc1Nc1nc(NCCN2CCOCC2)nc(OCC(F)(F)F)n1 [K091] | 43% | –
38 | CNc1nc(Nc2ccccc2)nc(OC(C(F)(F)F)C(F)(F)F)n1 [compound 11] | – | EC50 ([1]; N-methyl-N′-phenyl-1,3,5-triazine diamine analogs, read-out: EC50): 120 nM
39 | Cn1c(=O)c(-c2cc([N+](=O)[O-])ccc2N)nc2ccccc21 [inactive chemical analog of CFTRact-J027, reference compound] | – | effect of inactive analog on stool parameters [4]: nor was an inactive chemical analog of CFTRact-J027 effective
40 | cholera toxin | – | basal tear secretion at 30 min ([3]; mouse, in vivo): substantially increased; effect on tear secretion after 2 hours ([3]; mouse, in vivo): undetectable
